Measurements: US20260207632A1, “C[…] THERAPY” (KINGDOM THERAPEUTICS LIMITED, priority 2022, published 2026)

Experiments:
rat VPA model of autism = assay: Juvenile social play behaviour (P30) in the in utero valproic acid (VPA) rat model of autism; type: in vivo; set-up: key to play behaviour: +: improvement; Ø: no change
Protocol: Time-mated female Wistar rats were administered a single dose of valproic acid (VPA, 600 mg/kg, i.p.) on gestational day 12.5 (VPA/VEH). To determine behavioural deficits in the VPA autism model, male offspring were tested at juvenile (postnatal day 30) for the presence of abnormal behaviours associated with autism e.g., decreased sociability and increased irritability.
(§1) In the first study, a sub-chronic 8-day dosing schedule was employed with the test compound CBD administered alone (10, 30 and 60 mg/kg, p.o. VPA/CBD; dose volume 5 ml/kg). Control animals were administered sterile saline (0.9% w/v, i.p.) in utero and the vehicle control (ethanol: Kolliphor HS-15:0.9% saline (1:1:18, v/v/v) p.o. VEH/VEH). The test compound and vehicle control were administered to the animals once daily for 7 days prior to, and once again on each day of behavioural assessment, 60 minutes prior to test which consisted of a battery of behavioural paradigms: P30 social play and bottle brush test, P31-32 open field exploratory behaviour. A reference positive control, the atypical antipsychotic risperidone (0.125 mg/kg, i.p., once per day for 8 days prior to and for duration of behavioural testing), was included in study one for comparison. Subsequent to behavioural analysis the effect of CBD on gastrointestinal permeability was evaluated four hours following oral administration of fluorescein isothiocyanate-labelled dextran measured in plasma on postnatal day 33. On postnatal day 34, 60 minutes post a final treatment with the test agents, animals were humanely euthanised and samples collected to evaluate inflammatory biomarkers, gastrointestinal function and histology. 5 In the second study, the sub-optimal dose of CBD (30 mg/kg, p.o.) was evaluated in combination with administration of THC at increasing concentration (0.75, 1.5 and 3 mg/kg, p.o. VPA/CBD+THC). Comparison was made to CBD administered alone at the sub-optimal and effective doses (30 and 60 mg/kg, p.o.) and to vehicle controls as per study one. Behavioural and gastrointestinal readouts were examined as per study one with terminal samples collected on the final day of the experiment.
Time-mated female Wistar Han Rcc rats (Envigo, UK) were administered a single dose of valproic acid (VPA, Sigma Aldrich, Ireland, lot no. MKCB2699V, 600 mg/kg, i.p.) or vehicle (0.9% saline i.p.) on gestational day 12.5. Confirmation of the VPA induced developmental deficit was rapidly achieved by examination of characteristic “tail kinks” observed in all of the juvenile animals exposed to VPA. Litters were normalised to 8 animals and to male offspring at postnatal day 3. Male pups were cross fostered to make up the uniform litter size of eight. Male offspring were housed as per standard laboratory conditions until time of experimental use. Vehicle-treated control animals were employed as controls, with animals for both parts of the study prepared together. At weaning, animals were allocated into test groups according to a balanced design based on weight and litter to distribute these equally across each treatment group. Animals were introduced to the experimental holding rooms prior to the commencement of the study, housed in groups of 4 during this period in soft bottomed cages with sawdust bedding material, with enrichment consisting of nesting material, cardboard tubes and Perspex internal shelter, and maintained at 22-24° C. on a standard 12-hour light/dark cycle (07.30-19.30), with food and water available ad libitum. All animals were examined and weighed daily during drug treatment and experimental protocols. All procedures were carried out by individuals retaining the appropriate authorisation from the Irish Government Health Products Regulatory Authority. Furthermore, the study protocol was approved by the Animal Research Ethics Committee of University College Dublin, Ireland. […]

[1] = tested on: colonic myeloperoxidase (MPO) activity; assay: Colon myeloperoxidase (MPO) activity (P34) in distal colon, VPA rat model; type: in vivo; set-up: key to MPO activity: +: improvement; Ø: no change
Protocol: as §1
Five animals were chosen at random from each of the agreed treatment groups. Colon tissue was collected after euthanasia, weighted, flushed using cold sterile saline, and divided into three sections. One distal sample (approx. 1 cm×1 cm) was employed for intestinal myeloperoxidase (MPO) activity as described below by Berand Ltd. This sample was weighed and stored at −80° C. until use. A second proximal colon sample (approx. 1 cm×5 cm) was prepared for histological analysis by collection using the Swiss roll technique, placed into a cassette for paraffin embedding and preservation in 10% formalin solution for 24 hours. They were then transferred into 70% ethanol solution until paraffin embedded. These samples were shipped in 70% ethanol solution to Transpharmation Ltd at trinity College Dublin, Ireland for further processing. Haematoxylin & eosin staining was performed on the tissue before imaging. Five images were taken from each animal at 1.25× magnification. Using ImageJ the thickness of the muscle layer was measured at 5 locations throughout the section. A third medial section of colon (approx. 1 cm×2.5 cm) was frozen in liquid nitrogen for the analysis of cytokine expression and was shipped at minus 80° C. to Transpharmation Ltd at Trinity College Dublin, Ireland.
Analysis of colonic myeloperoxidase (MPO) activity employed a colorimetric activity assay kit (MAK068, Sigma-Aldrich, Ireland). Samples were analysed according to the manufacturer's instructions. Briefly, weighted distal colon tissues from all the groups were rapidly homogenized with 4 volumes of MPO Assay buffer and then centrifuged (13000 g×10 min, 4° C.) to obtain the supernatant. A 50 μl aliquot of each was added to a flat bottomed 96 well plate and brought to a final volume of 100 μl with MPO assay buffer. The MPO activity in milliunits/mL was determined using a 5,5′-dithiobis-(2-nitrobenzoic acid) (DTNB) probe to produce a TNB chromophore in a standard curve (0-50 nmol/mL). Standards and blank were prepared according to manufacturer's instruction. Absorbance was read at 412 nm at 60 minutes and expressed per mg of tissue sample. […]

[2] = cohort two, CBD 30 mg/kg, THC 0 mg/kg p.o.
[3] = cohort two, CBD 60 mg/kg, THC 0 mg/kg p.o.
[4] = study one, CBD 60 mg/kg, vs VPA/VEH
[5] = cohort one, risperidone 0.125 mg/kg i.p.
[6] = study one, risperidone 0.125 mg/kg

## C=C(C)[C@@H]1CCC(C)=C[C@H]1c1c(O)cc(CCCCC)cc1O [CBD, cannabidiol]
Rat VPA model of autism; cohort one, CBD 10 mg/kg p.o.
  play behaviour: Ø
Rat VPA model of autism; cohort one, CBD 30 mg/kg p.o.
  play behaviour: Ø
Rat VPA model of autism; cohort one, CBD 60 mg/kg p.o.
  play behaviour: +
Rat VPA model of autism; [2]
  play behaviour: Ø
Rat VPA model of autism; [3]
  play behaviour: +
Rat VPA model of autism; study one, CBD 10 mg/kg
  Mount Duration (sec): X (X = no effect)
  Mount Frequency: X (X = no effect)
  Social Play Duration (sec): X (X = no effect)
  Social Play Frequency: X (X = no effect)
  Social Play Latency (sec): X (X = no effect)
Rat VPA model of autism; study one, CBD 10 mg/kg, vs VPA/VEH
  latency to engage in mounting play behaviour (delay): significantly attenuated
Rat VPA model of autism; study one, CBD 30 mg/kg
  Mount Duration (sec): X (X = no effect)
  Mount Frequency: X (X = no effect)
  Social Play Duration (sec): X (X = no effect)
  Social Play Frequency: X (X = no effect)
  Social Play Latency (sec): X (X = no effect)
Rat VPA model of autism; study one, CBD 30 mg/kg, vs VPA/VEH
  latency to engage in mounting play behaviour (delay): significantly attenuated
Rat VPA model of autism; study one, CBD 60 mg/kg
  Social Play Frequency: X (X = no effect)
  Social Play Latency (sec): X (X = no effect)
Rat VPA model of autism; [4]
  decrease in duration of mounting behaviour: reversed
  decrease in frequency of mounting behaviour: ameliorated
  latency to engage in mounting play behaviour (delay): significantly attenuated
  reduction in social play duration: significantly attenuated
Rat VPA model of autism; study two, CBD 30 mg/kg
  reduction in social play duration: without effect
Rat VPA model of autism; study two, CBD 60 mg/kg
  decrease in duration of mounting behaviour: reversed
Rat VPA model of autism; study two, CBD 60 mg/kg, vs VPA/VEH
  reduction in social play duration: significantly attenuated
Rat VPA model of autism; study two, CBD alone 30 mg/kg
  Mount Duration (sec): X (X = no effect)
  Mount Frequency: X (X = no effect)
  Mount Latency (sec): X (X = no effect)
  Social Play Duration (sec): X (X = no effect)
  Social Play Frequency: X (X = no effect)
  Social Play Latency (sec): X (X = no effect)
Rat VPA model of autism; study two, CBD alone 60 mg/kg
  Mount Frequency: X (X = no effect)
  Mount Latency (sec): X (X = no effect)
  Social Play Frequency: X (X = no effect)
  Social Play Latency (sec): X (X = no effect)
[1]; cohort one, CBD 10 mg/kg p.o.
  MPO activity: Ø
[1]; cohort one, CBD 30 mg/kg p.o.
  MPO activity: Ø
[1]; cohort one, CBD 60 mg/kg p.o.
  MPO activity: +
[1]; [2]
  MPO activity: Ø
[1]; [3]
  MPO activity: +
[1]; [4]
  increase in colonic MPO activity: significantly prevented
[1]; study two, CBD 30 mg/kg
  increase in colonic MPO activity: without significant effect
[1]; study two, CBD 60 mg/kg
  increase in colonic MPO activity: significantly prevented

## Cc1nc2n(c(=O)c1CCN1CCC(c3noc4cc(F)ccc34)CC1)CCCC2 [Risperidone, risperidone]
Rat VPA model of autism; [5]
  play behaviour: Ø
Rat VPA model of autism; risperidone 0.125 mg/kg
  any other measure of play or social interaction in juvenile animals: without effect
Rat VPA model of autism; [6]
  Mount Duration (sec): X (X = no effect)
  Mount Frequency: X (X = no effect)
  Social Play Duration (sec): X (X = no effect)
  Social Play Frequency: X (X = no effect)
  Social Play Latency (sec): X (X = no effect)
[1]; [5]
  MPO activity: Ø
[1]; study one, risperidone 0.125 mg/kg i.p.
  increase in colonic MPO activity: without effect
